The Deep4Chem optical property database
Where “and” joins values, the source holds several entries; their conditions need not be identical. Equal values may be shown once.

Assay: solvent given as SMILES

Molecule `Cc1ccccc1N1c2sc3ccccc3c2Sc2sc3ccccc3c21` has an absorption maximum (in ClCCl) of 325 nm.

Molecule `C(=C\c1ncc2ccccc2n1)/c1ccc(N(c2ccccc2)c2ccccc2)cc1` has an absorption maximum (in ClCCl) of 400 nm.

With `CSc1ccc(/C=C/c2cnc3ccccc3n2)cc1` the absorption maximum (in C1CCOC1) was 376 nm, the absorption maximum (in CC#N) was 377 nm and the absorption maximum (in CCCCCCC) was 373 nm. It also gave an absorption maximum (in CS(C)=O) of 383 nm and an absorption maximum (in ClCCl) of 381 nm.

In the case of `CC1(C)c2ccccc2N(c2ccc3c(c2)C2(c4cc(N5c6ccccc6C(C)(C)c6ccccc65)ccc4-3)c3ccccc3S(=O)(=O)c3ccccc32)c2ccccc21`, the absorption maximum (in Cc1ccccc1) is reported as 364 nm.

Molecule `Cc1ccc(Nc2ccc(Nc3ccc(C)cc3)c3c2C(=O)c2ccccc2C3=O)cc1` has an absorption maximum (in C1CCCCC1) of 639 nm, an absorption maximum (in C1COCCO1) of 638 nm and an absorption maximum (in CC(C)=O) of 638 nm. For the same molecule, the absorption maximum (in CCCCCCCCCCO) was 644 nm, the absorption maximum (in CCCCCCCO) was 641 nm and the absorption maximum (in CCCCCCO) was 642 nm. The absorption maximum (in CCCCO) was 639 nm, the absorption maximum (in CCO) was 637 nm and the absorption maximum (in CN(C)C=O) was 643 nm. The absorption maximum (in CO) was 636 nm, the absorption maximum (in CS(C)=O) was 644 nm and the absorption maximum (in ClC(Cl)(Cl)Cl) was 642 nm. For the same molecule, the absorption maximum (in c1ccccc1) was 642 nm.

With `CCCCCCCCc1ccc(-c2ccc(/C=C(\C#N)c3ccc(-c4cccc5cccc(-c6ccc(/C(C#N)=C/c7ccc(-c8ccc(CCCCCCCC)cc8)cc7)cc6)c45)cc3)cc2)cc1` the absorption maximum (in Cc1ccccc1) was 350 nm.

For `CC1(C)c2ccccc2N(c2ccc3c(c2)c(=O)c2cccc4c(=O)c5cc(N6c7ccccc7C(C)(C)c7ccccc76)ccc5n3c24)c2ccccc21`, the absorption maximum (in Cc1ccccc1) was 432.96 nm.

Molecule `CCCCCCCCCCCCOc1cc2c3cc(OCCCCCCCCCCCC)c(OCCCCCCCCCCCC)cc3c3c(cc(OCCCCCCCCCCCC)c4nc5cc(C#Cc6ccc(CCCCCCCCCC)cc6)c(C#Cc6ccc(CCCCCCCCCC)cc6)cc5nc43)c2cc1OCCCCCCCCCCCC` has an absorption maximum (in ClC(Cl)Cl) of 482 nm.

`Cc1cc(C)c(-c2nnc(-c3ccc(-n4c5ccccc5c5ccccc54)cc3)o2)c(C)c1` showed an absorption maximum (in Cc1ccccc1) of 340 nm.

In the case of `CCCCCCn1c2cc(C=O)sc2c2sc3c(sc4c5sc(C=O)cc5n(CCCCCC)c43)c21`, the absorption maximum (in ClCCl) is reported as 468 nm.

Work on `Cc1ccc(N2C(c3ccccc3NS(=O)(=O)c3ccc(C)cc3)=NC(c3ccccc3)C2c2ccccc2)cc1` (stereo not drawn) yielded an absorption maximum (in Cc1ccccc1) of 300 nm.

With `CC1CCC(O)(c2ccc(-c3cccs3)s2)CC1` (stereo not drawn) the absorption maximum (in C1CCOC1) was 341 nm, the absorption maximum (in CC#N) was 341 nm and the absorption maximum (in CCCCCC) was 341 nm. It also gave an absorption maximum (in CCO) of 341 nm, an absorption maximum (in OCCOCCO) of 345 nm and an absorption maximum (in c1ccncc1) of 345 nm.

In the case of `Cc1ccc(C2=C3C=c4c(oc5ccccc45)=[N+]3[B-](F)(F)n3c2cc2c4ccccc4oc23)cc1`, the absorption maximum (in C1CCCCC1) is reported as 584.5 nm, the absorption maximum (in C1CCOC1) is reported as 581.5 nm and the absorption maximum (in CC#N) is reported as 578 nm. For the same molecule, the absorption maximum (in CCOC(C)=O) was 579.5 nm, the absorption maximum (in CN(C)C=O) was 581.5 nm and the absorption maximum (in CO) was 578 nm. The absorption maximum (in Cc1ccccc1) was 588 nm and the absorption maximum (in ClCCl) was 584 nm and 583 nm.

For `c1ccc(-c2nc(-c3ccccc3)nc(-c3ccc(-n4c5ccccc5c5cc6c(cc54)c4ccccc4n6-c4ccccc4)cc3)n2)cc1`, the absorption maximum (in Cc1ccccc1) was 403 nm.

Molecule `CCN(CC)c1ccc2cc(C#N)/c(=N\C(=O)C(C)C)oc2c1` has an absorption maximum (in CCO) of 422 nm and an absorption maximum (in ClCCl) of 428 nm.

`C(#Cc1cc(C#Cc2ccccc2)c(C#Cc2ccccc2)c(C#Cc2ccccc2)c1C#Cc1ccccc1)c1ccccc1` showed an absorption maximum (in ClCCl) of 364 nm.

`C(/C=C/c1ccc(-n2c3ccccc3c3ccccc32)cc1)=C\c1ccncc1` gave an absorption maximum (in C1COCCO1) of 356 nm, an absorption maximum (in CC#N) of 350 nm and an absorption maximum (in CCCCCCC) of 360 nm. For the same molecule, the absorption maximum (in CO) was 353 nm.

`CCCCCCCCCCCCn1cccc1/C=C/c1ccc(OCCCC)c2c(/C=C/c3cccn3CCCCCCCCCCCC)ccc(OCCCC)c12` showed an absorption maximum (in Cc1ccccc1) of 375 nm.

`OC1(c2ccc(-c3cccs3)s2)CCC(c2ccccc2)CC1` (stereo not drawn) gave an absorption maximum (in C1CCOC1) of 313 nm, an absorption maximum (in CC#N) of 309 nm and an absorption maximum (in CCCCCC) of 307 nm. The absorption maximum (in CCO) was 309 nm, the absorption maximum (in OCCOCCO) was 311 nm and the absorption maximum (in c1ccncc1) was 314 nm.

With `CN(C)c1ccc2c(c1)-c1ccccc1C2=O` the absorption maximum (in C1CCCCC1) was 400 nm, the absorption maximum (in CC#N) was 431 nm and the absorption maximum (in CCO) was 437 nm. For the same molecule, the absorption maximum (in c1ccccc1) was 420 nm.

`N#Cc1nc(N(Cc2ccc(I)cc2)Cc2ccc(I)cc2)c(C#N)nc1N(Cc1ccc(I)cc1)Cc1ccc(I)cc1` showed an absorption maximum (in ClC(Cl)Cl) of 484 nm.

With `Ic1ccc(C2=C3C=CC4=[N+]3[B-]3(Oc5ccccc54)Oc4ccccc4-c4ccc2n43)cc1` (stereo not drawn) the absorption maximum (in ClC(Cl)Cl) was 630 nm.

With `O=c1oc2ccccc2cc1-c1ccc([N+](=O)[O-])cc1` the absorption maximum (in C1CCOC1) was 331 nm, the absorption maximum (in CC#N) was 336 nm and the absorption maximum (in CS(C)=O) was 344 nm. It also gave an absorption maximum (in ClC(Cl)Cl) of 341 nm.

Work on `Cc1c(C)c(-c2ccc(-c3cccnc3)cc2)c(C)c(C)c1B(c1c(C)c(C)c(-c2ccc(-c3cccnc3)cc2)c(C)c1C)c1c(C)c(C)c(-c2ccc(-c3cccnc3)cc2)c(C)c1C` yielded an absorption maximum (in ClCCl) of 331 nm.

`CCCCNc1nc(/C=C/c2ccccc2)[n+]([O-])c2c1CCCC2` gave an absorption maximum (in ClCCl) of 415 nm.

Work on `COc1ccc(/C=C/c2nc3c4ccccc4c4ccccc4c3o2)cc1` yielded an absorption maximum (in CC#N) of 368 nm.

In the case of `O=C(O)CCCOc1cc2ccc3cccc4ccc(c1)c2c34`, the absorption maximum (in CO) is reported as 382 nm.

In the case of `c1ccc(N(c2ccccc2)c2ccc(-c3nc(-c4ccc(N(c5ccccc5)c5ccccc5)cc4)c4ccccc4n3)cc2)cc1`, the absorption maximum (in ClCCl) is reported as 370 nm.

For `Cc1c(C(=O)c2c(F)cc(F)cc2F)c2ccc3cccc4c5cccc6ccc1c(c65)c2c34`, the absorption maximum (in ClCCl) was 390 nm.

For `CCCc1c(C(=O)c2ccc3c4c(cccc24)-c2cccc4c2C3CC=C4)c2ccc3cccc4c5cccc6ccc1c(c65)c2c34` (stereo not drawn), the absorption maximum (in ClCCl) was 468 nm.

`CCn1c2ccccc2c2cc(-c3cc(-c4ccc5c(c4)c4ccccc4n5CC)nc(OC)n3)ccc21` gave an absorption maximum (in C1CCOC1) of 366 nm, an absorption maximum (in CCOC(C)=O) of 364 nm and an absorption maximum (in CN(C)C=O) of 369 nm. It also gave an absorption maximum (in Cc1ccccc1) of 365 nm and an absorption maximum (in ClCCl) of 366 nm.

Work on `COc1ccccc1C1=[N+]2C(=Nc3c(-c4ccccc4)cc(-c4ccccc4OC)n3[B-]2(F)F)C(c2ccccc2)=C1` yielded an absorption maximum (in Cc1ccccc1) of 640 nm.

Molecule `N#Cc1nc2c(OCc3ccccc3)nc(N)nc2n1Cc1ccccc1` has an absorption maximum (in C1COCCO1) of 313 nm, an absorption maximum (in CC#N) of 313 nm and an absorption maximum (in CO) of 318 nm. For the same molecule, the absorption maximum (in ClCCl) was 311 nm.

`Cc1cc2oc3ccccc3c2c2[nH]c3ccccc3c12` showed an absorption maximum (in ClCCl) of 337 nm.

With `CCCCC1=Cc2c3ccc4cccc5ccc(c6cc(-c7ccc(N(c8ccccc8)c8ccccc8)cc7)n(c26)P1(=O)c1ccccc1)c3c45` (stereo not drawn) the absorption maximum (in C1CCCCC1) was 431 nm, the absorption maximum (in C1CCOC1) was 432 nm and the absorption maximum (in C1COCCO1) was 432 nm. The absorption maximum (in CC#N) was 428 nm, the absorption maximum (in CC(C)=O) was 429 nm and the absorption maximum (in CO) was 428 nm. For the same molecule, the absorption maximum (in Cc1ccccc1) was 434 nm, the absorption maximum (in ClC(Cl)Cl) was 433 nm and the absorption maximum (in ClCCl) was 431 nm.

`CN(C)c1ccc(C#Cc2cc(C#Cc3ccc(C(F)(F)F)cc3)c3ccc4c(C#Cc5ccc(N(C)C)cc5)cc(C#Cc5ccc(C(F)(F)F)cc5)c5ccc2c3c45)cc1` gave an absorption maximum (in ClCCl) of 509 nm.

`Cc1ccc2nnn(-c3c(C#N)c4c(N)ncnc4n3[C@H]3C[C@H](O)[C@@H](CO)O3)c2c1` gave an absorption maximum (in CO) of 278 nm.

`CC1(C)c2ccccc2N(c2ccc(-c3ccc(C#N)cn3)cc2)c2ccccc21` gave an absorption maximum (in Cc1ccccc1) of 384 nm.

With `FC(F)(F)c1ccc2oc3nc4oc5ccc(N6c7ccccc7Oc7ccccc76)cc5c4cc3c2c1` the absorption maximum (in ClC(Cl)Cl) was 344 nm.

Work on `F[B-]1(F)n2cccc2C(c2c3ccccc3c(-c3ccccc3)c3ccccc23)=C2C=CC=[N+]21` yielded an absorption maximum (in CC#N) of 502 nm, an absorption maximum (in CCCCCC) of 509 nm and an absorption maximum (in CCO) of 504 nm. The absorption maximum (in CN(C)C=O) was 506 nm, the absorption maximum (in Cc1ccccc1) was 509 nm and the absorption maximum (in ClCCl) was 506 nm.

Work on `c1ccc(-c2nc(-c3ccccc3)nc(-c3ccc(N4c5ccccc5[Si](c5ccccc5)(c5ccccc5)c5ccccc54)cc3)n2)cc1` yielded an absorption maximum (in Cc1ccccc1) of 376.66 nm.

`CC(C)(C)c1ccc(C2=C(c3ccc(C(C)(C)C)cc3)C(c3ccc(C(C)(C)C)cc3)=[N+]3C2=C(c2ccccc2)c2c(-c4ccc(C(C)(C)C)cc4)c(-c4ccc(C(C)(C)C)cc4)c(-c4ccc(C(C)(C)C)cc4)n2[B-]3(F)F)cc1` showed an absorption maximum (in C1CCCCC1) of 589 nm, an absorption maximum (in C1CCOC1) of 585 nm and an absorption maximum (in CC#N) of 563 nm. The absorption maximum (in Cc1ccccc1) was 591 nm and the absorption maximum (in ClCCl) was 579 nm.

Work on `CCCCOC(=O)/C(C#N)=C1\C(=O)C([O-])=C1C=C1N(C)c2ccccc2C1(C)C` yielded an absorption maximum (in CCO) of 462 nm.

In the case of `[O-][n+]1c(/C=C/c2ccc(/C=C/c3ccccc3)cc2)nc(N2CCOCC2)c2c1CCCC2`, the absorption maximum (in ClCCl) is reported as 406 nm.

With `COc1cc2c3c4c(c5ccc(C(C)(C)C)cc5c5c(OC)c(OC)c(OC)c(c2c(OC)c1OC)c45)=[N+]1C3=Nc2c3c4cc(OC)c(OC)c(OC)c4c4c(OC)c(OC)c(OC)c5c6cc(C(C)(C)C)ccc6c(c3c54)n2[B-]1(F)F` the absorption maximum (in Cc1ccccc1) was 850 nm.

Molecule `CC1=C(c2cccs2)C(C)=[N+]2C1=C(c1ccc(O)cc1)c1c(C)c(-c3cccs3)c(C)n1[B-]2(F)F` has an absorption maximum (in CO) of 521 nm, an absorption maximum (in Cc1ccccc1) of 530 nm and an absorption maximum (in ClCCl) of 528 nm.

`CNc1cccc2c1C(=O)c1ccccc1-2` gave an absorption maximum (in C1CCCCC1) of 432 nm, an absorption maximum (in CC#N) of 445 nm and an absorption maximum (in CCO) of 448 nm. The absorption maximum (in c1ccccc1) was 445 nm.

`CC1=CC(C)=[N+]2C1=C(c1ccc(-c3c4ccccc4c(-c4ccccc4)c4ccccc34)cc1)c1c(C)cc(C)n1[B-]2(F)F` showed an absorption maximum (in CC#N) of 499 nm, an absorption maximum (in CCCCCC) of 502 nm and an absorption maximum (in CCO) of 500 nm. It also gave an absorption maximum (in CN(C)C=O) of 500 nm, an absorption maximum (in Cc1ccccc1) of 504 nm and an absorption maximum (in ClCCl) of 502 nm.

Work on `CC(C)(C)c1ccc2c(c1)c1cc(C(C)(C)C)ccc1n2-c1ccc(-c2ccc3c(c2)C2(c4cc(-c5ccc(-n6c7ccc(C(C)(C)C)cc7c7cc(C(C)(C)C)ccc76)cc5)ccc4-3)c3ccccc3S(=O)(=O)c3ccccc32)cc1` yielded an absorption maximum (in ClCCl) of 353 nm.

In the case of `Cc1ccc(/C=C/c2nc(-c3ccc([N+](=O)[O-])cc3)[nH]c2/C=C/c2ccc(C)cc2)cc1`, the absorption maximum (in ClCCl) is reported as 445 nm.

`CC1=[N+]2C(=C(c3ccc(C(=C(c4ccccc4)c4ccccc4)c4ccccc4)cc3)c3ccc(C)n3[B-]2(F)F)C=C1` showed an absorption maximum (in C1CCOC1) of 511 nm.
